Laboratory results published in patent publication EP0099121A2, “Pharmaceutical compositions” (Bristol-Myers Company, priority 1982, dated 1984).
Where two headings read alike, the source gives them in different places. Where a SMILES comes first, the peptide text is derived from it. [ ]: non-standard residue; d: D form. The star is where a group is joined. Sta = CC(C)C[C@H](N)[C@@H](O)CC(=O)O; Isovaleryl = CC(C)CC(=O)*

Assays:
[1] = daily oral doses of 700 mg for up to three months; cited from earlier work
[2] = tested on: gastric ulcer; details: 100 mg doses seven times a day, versus placebo; cited from earlier work
[3] = tested on: pepsin; details: in the feed at >50 ppm; cited from earlier work
[4] = tested on: pepsin; details: patients with ulcer dyspepsia; cited from earlier work
[5] = tested on: pepsin; assay: 18 hour pylorus ligated rat; format: in vivo; details: 20 mg/kg po
[6] = tested on: pepsin; details: cited from earlier work
[7] = all animal species studied; cited from earlier work
[8] = tested on: stomach ulcers; details: rat, in vivo; cited from earlier work
[9] = tested on: pepsin; details: duodenal ulcer; cited from earlier work
[10] = cited from earlier work
[11] = tested on: duodenal ulcer; details: 100 mg doses seven times a day, cited from earlier work

## CC(C)CC(=O)N[C@H](C(=O)N[C@H](C(=O)N[C@@H](CC(C)C)[C@@H](O)CC(=O)N[C@@H](C)C(=O)N[C@@H](CC(C)C)[C@@H](O)CC(=O)O)C(C)C)C(C)C [pepstatin] (Isovaleryl-VV[Sta]A[Sta]-OH)
[1]
  side effects: no side effects were observed
[2]
  healing or symptomatology of gastric ulcer: not able to detect any influence
[3]
  occurrence of ulcers: prevented the occurrence of ulcers
  pepsin activity in the gastric juice: inhibited pepsin activity
[4]
  effect on the gastric acidity: no effect
  gastric peptic activity: inhibits gastric peptic activity
[5]
  pepsin activity: completely inhibited
  ulcer formation: antagonized ulcer formation
[6]
  duration of pepsin suppression: about 1 hours
[7]
  LD50: exceeded 3000 mg/kg
[8]
  formation of stomach ulcers: prevent the formation of stomach ulcers
[9]
  benefit in patients with duodenal ulcer: ineffective
[10]; animal studies, oral, within 72 hours
  excreted in the feces: more than 90%
[10]
  absorption upon oral administration: essentially unabsorbed
[10]; listed as Pepstatin
  absorption upon oral administration: only poorly absorbed
[11]; versus placebo
  healing or symptomatology of duodenal ulcer: no significant difference between pepstatin and placebo
[11]
  duration of inhibition of peptic activity of gastric juice: 18 hours a day
